Source: patent US20160168126A1, “CHEMICAL COMPOUNDS” (SYNGENTA LIMITED, priority 2013, published 2016)

Test system: a variety of test species
Assay: Post-emergence herbicidal activity (glasshouse, sprayed 8 days after sowing, evaluated after 13 days)
Type: in vivo
Conditions: scale 0-5
Method: Seeds of a variety of test species were sown in standard soil in pots. After 8 days cultivation (post-emergence) under controlled conditions in a glasshouse (at 24/16° C., day/night; 14 hours light; 65% humidity), the plants were sprayed with an aqueous spray solution derived from the formulation of the technical active ingredient in acetone/water (50:50) solution containing 0.5% Tween 20 (polyoxyethelyene sorbitan monolaurate, CAS RN 9005-64-5). The test plants were then grown in a glasshouse under controlled conditions (at 24/16° C., day/night; 14 hours light; 65% humidity) and watered twice daily. After 13 days, the test was evaluated (5=total damage to plant; 0=no damage to plant).

Row | Structure (SMILES) | Post-emergence herbicidal damage score, ABUTH (Abutilon theophrasti) (1000 g/ha) | Post-emergence herbicidal damage score, ALOMY (Alopecurus myosuroides) (1000 g/ha) | Post-emergence herbicidal damage score, AMARE (Amaranthus retroflexus) (1000 g/ha) | Post-emergence herbicidal damage score, ECHCG (Echinochloa crus-galli) (1000 g/ha) | Post-emergence herbicidal damage score, SETFA (Setaria faberi) (1000 g/ha) | Post-emergence herbicidal damage score, ZEAMX (Zea mays) (1000 g/ha) | Post-emergence herbicidal damage score, ABUTH (Abutilon theophrasti) (250 g/ha) | Post-emergence herbicidal damage score, ALOMY (Alopecurus myosuroides) (250 g/ha) | Post-emergence herbicidal damage score, AMARE (Amaranthus retroflexus) (250 g/ha) | Post-emergence herbicidal damage score, ECHCG (Echinochloa crus-galli) (250 g/ha) | Post-emergence herbicidal damage score, SETFA (Setaria faberi) (250 g/ha) | Post-emergence herbicidal damage score, ZEAMX (Zea mays) (250 g/ha)
1 | CC1=C(Cl)C(O)N(c2cc(C(F)(F)F)n(C)n2)C1=O (stereo not drawn) [Compound B3] | 5 | 5 | 5 | 5 | 4 | 1 |  |  |  |  |  | 
2 | CC1=C(Cl)C(O)N(c2cc(C(F)(F)C(F)(F)F)n(C)n2)C1=O (stereo not drawn) [Compound B4] | 5 | 4 | 5 | 4 | 3 | 0 |  |  |  |  |  | 
3 | CC1=C(Cl)C(O)N(c2cc(C(C)C)n(C)n2)C1=O (stereo not drawn) [Compound B5] |  |  |  |  |  |  | 5 | 4 | 5 | 5 | 4 | 3
4 | C=CCC(C)(C)c1cc(N2C(=O)C(C)=C(Cl)C2O)nn1C (stereo not drawn) [Compound B6, 3-chloro-1-[5-(1,1-dimethylbut-3-enyl)-1-methyl-pyrazol-3-yl]-2-hydroxy-4-methyl-2H-pyrrol-5-one] | 5 | 5 | 5 | 5 | 5 | 2 |  |  |  |  |  | 
5 | CC(C)=Cc1cc(N2C(=O)C(C)=C(Cl)C2O)nn1C (stereo not drawn) [Compound B7, 3-chloro-2-hydroxy-4-methyl-1-[1-methyl-5-(2-methylprop-1-enyl)pyrazol-3-yl]-2H-pyrrol-5-one] | 4 | 0 | 3 | 1 | 5 | 2 |  |  |  |  |  | 
6 | CC1=C(Cl)C(O)N(c2cc(I)n(C)n2)C1=O (stereo not drawn) [Compound B8, 3-chloro-2-hydroxy-1-(5-iodo-1-methyl-pyrazol-3-yl)-4-methyl-2H-pyrrol-5-one] | 5 | 3 | 5 | 4 | 5 | 1 |  |  |  |  |  | 
7 | CC1=C(Cl)C(O)N(c2cc(Cl)n(C)n2)C1=O (stereo not drawn) [Compound B9] | 5 | 4 | 5 | 5 | 5 | 1 |  |  |  |  |  | 
8 | CC(C)=CCc1cc(N2C(=O)C(C)=C(Cl)C2O)nn1C (stereo not drawn) [Compound B10, 3-chloro-2-hydroxy-4-methyl-1-[1-methyl-5-(3-methylbut-2-enyl)pyrazol-3-yl]-2H-pyrrol-5-one] | 2 | 0 | 0 | 2 | 3 | 0 |  |  |  |  |  | 
9 | CC1=C(Cl)C(O)N(c2cc(/C=C/C(C)(C)C)n(C)n2)C1=O (stereo not drawn) [Compound B11] | 0 | 0 | 0 | 0 | 0 | 0 |  |  |  |  |  | 
10 | CC1=C(Cl)C(O)N(c2cc(CCC(C)C)n(C)n2)C1=O (stereo not drawn) [Compound B12] | 1 | 0 | 0 | 0 | 0 | 0 |  |  |  |  |  | 
11 | CSc1cc(N2C(=O)C(C)=C(Cl)C2O)nn1C (stereo not drawn) [Compound B17] | 4 | 2 | 3 | 4 | 5 | 1 |  |  |  |  |  | 
12 | CC1=C(Cl)C(O)N(c2nn(C)c3c2CCC3(C)C)C1=O (stereo not drawn) [Compound B18] | 5 | 4 | 5 | 5 | 5 | 4 |  |  |  |  |  | 
13 | CC1=C(Cl)C(O)N(c2cc(S(C)(=O)=O)n(C)n2)C1=O (stereo not drawn) [Compound B20] | 5 | 3 | 5 | 4 | 5 | 0 |  |  |  |  |  | 
14 | CC1=C(Cl)C(O)N(c2cc(C(C)(C)C#N)n(C)n2)C1=O (stereo not drawn) [Compound B23] | 4 | 3 | 5 | 5 | 4 | 1 |  |  |  |  |  | 
15 | C/C=C\c1cc(N2C(=O)C(C)=C(Cl)C2O)nn1C (stereo not drawn) [Compound B24] | 5 | 3 | 5 | 4 | 5 | 1 |  |  |  |  |  | 
16 | C=C(C)c1cc(N2C(=O)C(C)=C(Cl)C2O)nn1C (stereo not drawn) [Compound B25] | 5 | 4 | 5 | 5 | 5 | 2 |  |  |  |  |  | 
17 | CC1=C(Cl)C(O)N(c2cc([S+](C)[O-])n(C)n2)C1=O (stereo not drawn) [Compound B26] | 5 | 4 | 5 | 5 | 5 | 4 |  |  |  |  |  | 
18 | CC(C)=C(C)c1cc(N2C(=O)C(C)=C(Cl)C2O)nn1C (stereo not drawn) [Compound B27] | 4 | 1 | 1 | 0 | 3 | 0 |  |  |  |  |  | 
19 | CC1=C(Cl)C(O)N(c2nn(C)c3c2CCCCC3(C)C)C1=O (stereo not drawn) [Compound B28] | 4 | 2 | 4 | 3 | 3 | 1 |  |  |  |  |  | 
